{"source": "ChEMBL document CHEMBL1156447", "about": "“Cyanidin-3-rutinoside, a natural polyphenol antioxidant, selectively kills leukemic cells by induction of oxidative stress” (J Biol Chem, 2007)", "key": {"HL-60 [1]": {"tested_on": "HL-60", "assay": "Induction of apoptosis in human HL60 cells after 18 hrs by Hoechst 33258 staining", "type": "functional, cell-based"}, "HL-60 [2]": {"tested_on": "HL-60", "assay": "Induction of apoptosis in human HL60 cells at 60 uM by Hoechst 33258 staining", "type": "functional, cell-based", "conditions": "TDE = time-dependent effect"}, "HL-60 [3]": {"tested_on": "HL-60", "assay": "Induction of apoptosis in human HL60 cells assessed as caspase 3 activation", "type": "functional, cell-based"}, "HL-60 [4]": {"tested_on": "HL-60", "assay": "Induction of apoptosis in human HL60 cells assessed as caspase 9 activation", "type": "functional, cell-based"}, "HL-60 [5]": {"tested_on": "HL-60", "assay": "Suppression of induction of apoptosis in human HL60 cells at 60 uM after 18 hrs in presence of Z-VAD", "type": "functional, cell-based"}, "HL-60 [6]": {"tested_on": "HL-60", "assay": "Suppression of induction of apoptosis in human HL60 cells at 60 uM after 18 hrs in presence of DEVD-CHO", "type": "functional, cell-based"}, "HL-60 [7]": {"tested_on": "HL-60", "assay": "Induction of apoptosis in human HL60 cells assessed as cytochrome c release at 80 uM by immunoblot analysis", "type": "functional, cell-based"}, "HL-60 [8]": {"tested_on": "HL-60", "assay": "Induction of apoptosis in human HL60 cells assessed as Smac release at 80 uM by immunoblot analysis", "type": "functional, cell-based"}, "MOLT-4": {"tested_on": "MOLT-4", "assay": "Induction of apoptosis in human MOLT4 cells after 18 hrs by Hoechst staining", "type": "functional, cell-based"}, "Daudi": {"tested_on": "Daudi", "assay": "Induction of apoptosis in human Daudi cells after 18 hrs by Hoechst staining", "type": "functional, cell-based"}, "CCRF-CEM [9]": {"tested_on": "CCRF-CEM", "assay": "Induction of apoptosis in human CCRF-CEM cells after 18 hrs by Hoechst staining", "type": "functional, cell-based"}, "[10]": {"assay": "Antioxidant activity in Ti(IV)-hydrogen peroxide complex system assessed as inhibition of hydrogen peroxide production", "type": "functional"}, "[11]": {"assay": "Antioxidant activity assessed as inhibition of superoxide production", "type": "functional"}, "[12]": {"assay": "Antioxidant activity assessed as inhibition of peroxyl radical production", "type": "functional"}, "PBMC": {"tested_on": "PBMC", "assay": "Antioxidant activity in human PBMC assessed as reduction in intracellular peroxide levels by flow cytometry", "type": "functional, cell-based"}, "HL-60 [13]": {"tested_on": "HL-60", "assay": "Increase in hydrogen peroxide accumulation in human HL60 cells at 80 uM by flow cytometry", "type": "functional, cell-based"}, "HL-60 [14]": {"tested_on": "HL-60", "assay": "Increase in intracellular hydrogen peroxide level in human HL60 cells after 1 hr by phenol red method", "type": "functional, cell-based"}, "HL-60 [15]": {"tested_on": "HL-60", "assay": "Suppression of induction of apoptosis in human HL60 cells at 80 uM after 18 hrs by Hoechst staining in presence of hydrogen peroxide", "type": "functional, cell-based"}, "HL-60 [16]": {"tested_on": "HL-60", "assay": "Suppression of induction of apoptosis in human HL60 cells at 80 uM after 18 hrs by Hoechst staining in presence of N-acetyl-cysteine", "type": "functional, cell-based"}, "HL-60 [17]": {"tested_on": "HL-60", "assay": "Suppression of induction of apoptosis in human HL60 cells at 80 uM after 18 hrs by Hoechst staining in presence of catalase", "type": "functional, cell-based"}, "[18]": {"molecular_target": "T1, MAP kinase p38 (Homo sapiens) (UniProt O15264+Q15759+Q16539+P53778)", "assay": "Increase in p38 MAPK phosphorylation in human HL60 cells at 80 uM after 8 hrs by immunoblot analysis", "type": "cell-based", "conditions": "HL-60"}, "[19]": {"molecular_target": "T2, c-Jun N-terminal kinase, JNK (Homo sapiens) (UniProt P45983+P53779+P45984)", "assay": "Increase in JNK phosphorylation in human HL60 cells at 80 uM after 8 hrs by immunoblot analysis", "type": "cell-based", "conditions": "HL-60"}, "HL-60 [20]": {"tested_on": "HL-60", "assay": "Suppression of induction of apoptosis in human HL60 cells assessed as inhibition of mitochondrial release of cytochrome c at 80 uM after 18 hrs […] in presence of SB-203580", "type": "functional, cell-based"}, "HL-60 [21]": {"tested_on": "HL-60", "assay": "Suppression of induction of apoptosis in human HL60 cells assessed as inhibition of mitochondrial release of cytochrome c at 80 uM after 18 hrs […] in presence of SP600125", "type": "functional, cell-based"}, "HL-60 [22]": {"tested_on": "HL-60", "assay": "Suppression of induction of apoptosis in human HL60 cells assessed as inhibition of mitochondrial release of Smac at 80 uM after 18 hrs […] in presence of SB-203580", "type": "functional, cell-based"}, "HL-60 [23]": {"tested_on": "HL-60", "assay": "Suppression of induction of apoptosis in human HL60 cells assessed as inhibition of mitochondrial release of Smac at 80 uM after 18 hrs […] in presence of SP600125", "type": "functional, cell-based"}, "HL-60 [24]": {"tested_on": "HL-60", "assay": "Suppression of induction of apoptosis in human HL60 cells at 80 uM after 18 hrs by Hoechst staining in presence of SB-203580", "type": "functional, cell-based"}, "HL-60 [25]": {"tested_on": "HL-60", "assay": "Suppression of induction of apoptosis in human HL60 cells at 80 uM after 18 hrs by Hoechst staining in presence of SP600125", "type": "functional, cell-based"}, "[26]": {"molecular_target": "T3, Bcl-2 homologous antagonist/killer (Homo sapiens) (UniProt Q16611)", "T3 sequence (whole entry)": "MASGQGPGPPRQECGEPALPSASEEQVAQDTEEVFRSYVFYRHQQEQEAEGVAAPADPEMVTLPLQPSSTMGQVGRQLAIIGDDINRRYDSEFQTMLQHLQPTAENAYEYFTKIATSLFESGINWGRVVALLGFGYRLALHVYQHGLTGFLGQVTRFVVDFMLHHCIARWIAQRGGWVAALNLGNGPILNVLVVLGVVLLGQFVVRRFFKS", "assay": "Activation of Bak in human HL60 cells assessed as oligomerization and conformational change at 80 uM after 8 hrs by immunostaining", "type": "functional, cell-based", "conditions": "HL-60"}, "[27]": {"molecular_target": "Bcl-2-like protein 11 (Homo sapiens) (UniProt O43521)", "sequence (O43521 whole entry, looked up)": "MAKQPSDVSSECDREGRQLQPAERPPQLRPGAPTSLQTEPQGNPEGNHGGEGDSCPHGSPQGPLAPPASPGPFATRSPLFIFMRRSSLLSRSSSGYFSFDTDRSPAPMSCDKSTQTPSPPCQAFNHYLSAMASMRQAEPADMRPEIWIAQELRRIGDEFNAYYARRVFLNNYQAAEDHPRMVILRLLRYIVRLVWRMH", "assay": "Increase in Bim EL phosphorylation in human HL60 cells at 80 uM after 8 hrs by immunoblot analysis", "type": "cell-based", "conditions": "HL-60"}, "CCRF-CEM [28]": {"tested_on": "CCRF-CEM", "assay": "Suppression of induction of apoptosis in human CCRF-CEM cells at 80 uM after 24 hrs by Hoechst staining in presence of SB-203580", "type": "functional, cell-based"}, "CCRF-CEM [29]": {"tested_on": "CCRF-CEM", "assay": "Suppression of induction of apoptosis in human CCRF-CEM cells at 80 uM after 24 hrs by Hoechst staining in presence of N-acetyl-cysteine", "type": "functional, cell-based"}, "CCRF-CEM [30]": {"tested_on": "CCRF-CEM", "assay": "Suppression of induction of apoptosis in human CCRF-CEM cells at 80 uM after 24 hrs by Hoechst staining in presence of catalase", "type": "functional, cell-based"}, "HL-60 [31]": {"tested_on": "HL-60", "assay": "Induction of apoptosis in human HL60 cells overexpressing human Bcl XL after 18 hrs by Hoechst staining", "type": "functional, cell-based"}, "HL-60 [32]": {"tested_on": "HL-60", "assay": "Induction of apoptosis in human HL60 cells overexpressing human Bcl2 after 18 hrs by Hoechst staining", "type": "functional, cell-based"}, "[33]": {"molecular_target": "T1, MAP kinase p38 (Homo sapiens)", "assay": "Increase in p38 MAPK phosphorylation in catalase pretreated human HL60 cells at 80 uM after 8 hrs by immunoblot analysis", "type": "cell-based", "conditions": "HL-60"}, "[34]": {"molecular_target": "T2, c-Jun N-terminal kinase, JNK (Homo sapiens)", "assay": "Increase in JNK phosphorylation in N-acetyl-cysteine pretreated human HL60 cells at 80 uM after 8 hrs by immunoblot analysis", "type": "cell-based", "conditions": "HL-60"}, "[35]": {"molecular_target": "T2, c-Jun N-terminal kinase, JNK (Homo sapiens)", "assay": "Increase in JNK catalase pretreated human HL60 cells at 80 uM after 8 hrs by immunoblot analysis", "type": "cell-based", "conditions": "HL-60"}, "CCRF-CEM [36]": {"tested_on": "CCRF-CEM", "assay": "Induction of apoptosis in human CCRF-CEM cells expressing shRNA against Bim at 80 uM after 24 hrs by Hoechst staining", "type": "functional, cell-based"}, "[37]": {"molecular_target": "Apoptosis regulator BAX (Homo sapiens) (UniProt Q07812)", "sequence (Q07812 whole entry)": "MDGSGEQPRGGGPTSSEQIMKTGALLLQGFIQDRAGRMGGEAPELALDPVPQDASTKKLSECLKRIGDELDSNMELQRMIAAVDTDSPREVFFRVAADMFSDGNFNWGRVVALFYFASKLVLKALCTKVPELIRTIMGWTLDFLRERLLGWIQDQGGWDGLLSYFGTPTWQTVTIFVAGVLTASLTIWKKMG", "assay": "Activation of Bax in human HL60 cells assessed as mitochondrial translocation at 80 uM after 8 hrs by immunostaining", "conditions": "HL-60"}, "[38]": {"molecular_target": "T1, MAP kinase p38 (Homo sapiens)", "assay": "Increase in p38 MAPK phosphorylation in N-acetyl-cysteine pretreated human HL60 cells at 80 uM after 2 hrs by immunoblot analysis", "conditions": "HL-60"}}, "note": "The source made the active and inactive calls. The rule behind the calls is not given here."}
{"smiles": "C[C@@H]1O[C@@H](OC[C@H]2O[C@@H](Oc3cc4c(O)cc(O)cc4[o+]c3-c3ccc(O)c(O)c3)[C@H](O)[C@@H](O)[C@@H]2O)[C@H](O)[C@H](O)[C@H]1O", "values": [{"measurement": "Activity", "setting": "HL-60 [1]", "result": "Dose-dependent effect"}, {"measurement": "Activity", "setting": "HL-60 [2]", "result": "tde"}, {"measurement": "Activity", "setting": "HL-60 [3]", "result": "Dose-dependent effect"}, {"measurement": "Activity", "setting": "HL-60 [4]", "result": "Dose-dependent effect"}, {"measurement": "Activity", "setting": "HL-60 [5]", "result": "Active"}, {"measurement": "Activity", "setting": "HL-60 [6]", "result": "Active"}, {"measurement": "Activity", "setting": "HL-60 [7]", "result": "Active"}, {"measurement": "Activity", "setting": "HL-60 [8]", "result": "Active"}, {"measurement": "Activity", "setting": "MOLT-4", "result": "Active"}, {"measurement": "Activity", "setting": "Daudi", "result": "Active"}, {"measurement": "Activity", "setting": "CCRF-CEM [9]", "result": "Active"}, {"measurement": "Activity", "setting": "[10]", "result": "Dose-dependent effect"}, {"measurement": "Activity", "setting": "[11]", "result": "Active"}, {"measurement": "Activity", "setting": "[12]", "result": "Active"}, {"measurement": "Activity", "setting": "PBMC", "result": "Active"}, {"measurement": "Activity", "setting": "HL-60 [13]", "result": "Active"}, {"measurement": "Activity", "setting": "HL-60 [14]", "result": "Active"}, {"measurement": "Activity", "setting": "HL-60 [15]", "result": "Active"}, {"measurement": "Activity", "setting": "HL-60 [16]", "result": "Active"}, {"measurement": "Activity", "setting": "HL-60 [17]", "result": "Active"}, {"measurement": "Activity", "setting": "[18]", "result": "Active"}, {"measurement": "Activity", "setting": "[19]", "result": "Active"}, {"measurement": "Activity", "setting": "HL-60 [20]", "result": "Active"}, {"measurement": "Activity", "setting": "HL-60 [21]", "result": "Active"}, {"measurement": "Activity", "setting": "HL-60 [22]", "result": "Active"}, {"measurement": "Activity", "setting": "HL-60 [23]", "result": "Active"}, {"measurement": "Activity", "setting": "HL-60 [24]", "result": "Active"}, {"measurement": "Activity", "setting": "HL-60 [25]", "result": "Active"}, {"measurement": "Activity", "setting": "[26]", "result": "Active"}, {"measurement": "Activity", "setting": "[27]", "result": "Active"}, {"measurement": "Activity", "setting": "CCRF-CEM [28]", "result": "Active"}, {"measurement": "Activity", "setting": "CCRF-CEM [29]", "result": "Active"}, {"measurement": "Activity", "setting": "CCRF-CEM [30]", "result": "Active"}, {"measurement": "Activity", "setting": "HL-60 [31]", "result": "inactive"}, {"measurement": "Activity", "setting": "HL-60 [32]", "result": "inactive"}, {"measurement": "Activity", "setting": "[33]", "result": "inactive"}, {"measurement": "Activity", "setting": "[34]", "result": "inactive"}, {"measurement": "Activity", "setting": "[35]", "result": "inactive"}, {"measurement": "Activity", "setting": "CCRF-CEM [36]", "result": "inactive"}, {"measurement": "Activity", "setting": "[37]", "result": "Active"}, {"measurement": "Activity", "setting": "[38]", "result": "inactive"}]}
